Earlier results, collected in US11504327B1, “Method of preparing nanoparticles by hot-melt extrusion” (priority 2019, dated 2022).

Details: polyethoxylated oleyl alcohols; Walters et al. 1993

| permeation enhancement of ibuprofen across human skin | Substance |
| --- | --- |
| most effective permeation enhancer | oleth-2 |
| worst | oleth-20 |
